Test results reported in patent publication US10072026B2, “Crystalline form of 3-((1R,3s,5S)-3-((7-((5-methyl-1H-pyrazol-3-yl)amino)-1,6-naphthyridin-5-yl)amino)-8-azabicyclo[3.2.1]octan-8-yl)propanenitrile” (priority 2015, dated 2018).
Where two headings read alike, the source gives them in different places.

Experiments:
[1] = biological target: JAK1 (Homo sapiens (Human), UniProt P23458); assay: LanthaScreen JAK biochemical assay (JAK1)
[2] = biological target: JAK2 (Homo sapiens (Human), UniProt O60674); assay: LanthaScreen JAK biochemical assay (JAK2)
[3] = tested on: IL-4 induced STAT6 phosphorylation in THP-1 human monocytic cells; assay: Cellular JAK potency assay, THP-1
[4] = Homo sapiens, THP-1, read-out: THP-1 IL4 pIC50 (converted)
[5] = THP-1 cells, IL-4 induced STAT6 phosphorylation
[6] = read-out: JAK 2 (pKi) (converted)
[7] = IL-4 induced STAT6 phosphorylation, THP-1 cells
[8] = read-out: JAK 1 (pKi) (converted)

Chain of JAK2 (O60674 whole entry): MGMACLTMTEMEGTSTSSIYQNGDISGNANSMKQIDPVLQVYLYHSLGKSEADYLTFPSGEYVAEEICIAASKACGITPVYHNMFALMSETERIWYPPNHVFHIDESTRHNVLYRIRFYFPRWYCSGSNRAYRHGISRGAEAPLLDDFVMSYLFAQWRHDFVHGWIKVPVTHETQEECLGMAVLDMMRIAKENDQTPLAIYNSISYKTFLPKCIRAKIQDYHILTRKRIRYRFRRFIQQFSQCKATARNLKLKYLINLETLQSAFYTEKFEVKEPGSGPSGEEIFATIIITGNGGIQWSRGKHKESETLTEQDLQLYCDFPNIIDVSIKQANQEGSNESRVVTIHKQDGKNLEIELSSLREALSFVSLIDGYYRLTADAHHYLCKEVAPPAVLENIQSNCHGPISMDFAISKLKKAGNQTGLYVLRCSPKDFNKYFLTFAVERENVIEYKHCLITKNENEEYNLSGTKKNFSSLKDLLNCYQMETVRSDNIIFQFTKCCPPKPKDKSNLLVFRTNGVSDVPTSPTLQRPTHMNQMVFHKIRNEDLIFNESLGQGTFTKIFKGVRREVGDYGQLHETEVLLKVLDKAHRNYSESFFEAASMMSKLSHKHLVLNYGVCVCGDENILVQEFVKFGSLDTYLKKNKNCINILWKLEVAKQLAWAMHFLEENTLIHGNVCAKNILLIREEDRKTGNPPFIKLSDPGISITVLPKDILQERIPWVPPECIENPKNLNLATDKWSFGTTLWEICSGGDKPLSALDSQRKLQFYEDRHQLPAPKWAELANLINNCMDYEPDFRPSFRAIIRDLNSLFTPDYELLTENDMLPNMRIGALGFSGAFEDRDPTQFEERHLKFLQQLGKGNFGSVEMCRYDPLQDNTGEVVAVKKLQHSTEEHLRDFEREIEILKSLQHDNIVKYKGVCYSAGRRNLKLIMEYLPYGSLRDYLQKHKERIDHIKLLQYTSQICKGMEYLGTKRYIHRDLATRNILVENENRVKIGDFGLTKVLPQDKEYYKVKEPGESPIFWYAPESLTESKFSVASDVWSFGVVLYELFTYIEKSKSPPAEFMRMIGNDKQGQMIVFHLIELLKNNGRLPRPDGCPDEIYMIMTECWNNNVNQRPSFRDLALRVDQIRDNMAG
Chain of JAK1 (P23458 whole entry): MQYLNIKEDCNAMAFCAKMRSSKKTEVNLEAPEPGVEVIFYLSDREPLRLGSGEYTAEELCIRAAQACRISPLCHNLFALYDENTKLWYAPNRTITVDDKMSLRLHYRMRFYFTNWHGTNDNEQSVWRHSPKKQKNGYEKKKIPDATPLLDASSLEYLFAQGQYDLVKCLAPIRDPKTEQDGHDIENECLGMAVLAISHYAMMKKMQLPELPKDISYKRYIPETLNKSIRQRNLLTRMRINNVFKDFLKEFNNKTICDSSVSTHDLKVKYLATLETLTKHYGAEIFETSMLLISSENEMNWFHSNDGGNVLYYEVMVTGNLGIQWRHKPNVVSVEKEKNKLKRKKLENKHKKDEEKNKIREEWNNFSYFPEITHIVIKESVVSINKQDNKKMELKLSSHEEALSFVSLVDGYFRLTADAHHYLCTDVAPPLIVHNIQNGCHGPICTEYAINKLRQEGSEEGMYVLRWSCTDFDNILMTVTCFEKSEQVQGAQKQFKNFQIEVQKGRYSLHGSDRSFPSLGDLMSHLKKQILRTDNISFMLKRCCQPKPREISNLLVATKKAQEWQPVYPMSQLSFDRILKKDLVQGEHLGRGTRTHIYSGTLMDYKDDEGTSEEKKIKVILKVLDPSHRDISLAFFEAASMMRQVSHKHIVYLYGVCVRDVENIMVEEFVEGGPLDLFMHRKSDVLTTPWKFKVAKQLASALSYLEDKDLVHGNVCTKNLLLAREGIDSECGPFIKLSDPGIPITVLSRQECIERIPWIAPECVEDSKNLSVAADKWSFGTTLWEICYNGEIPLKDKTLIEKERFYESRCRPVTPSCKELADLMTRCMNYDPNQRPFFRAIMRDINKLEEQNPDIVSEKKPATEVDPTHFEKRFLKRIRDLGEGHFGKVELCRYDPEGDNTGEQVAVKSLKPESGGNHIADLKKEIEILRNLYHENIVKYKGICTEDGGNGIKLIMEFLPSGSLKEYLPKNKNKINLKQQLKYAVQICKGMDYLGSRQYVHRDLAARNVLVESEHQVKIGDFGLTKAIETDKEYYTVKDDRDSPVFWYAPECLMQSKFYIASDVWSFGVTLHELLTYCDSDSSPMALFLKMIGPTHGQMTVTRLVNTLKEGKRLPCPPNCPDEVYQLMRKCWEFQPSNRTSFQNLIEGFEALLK

Structure (SMILES)	JAK 1 (pKi) [1]	JAK 2 (pKi) [2]	THP-1 IL4 pIC50 [3, 7]	other results
Cc1cc(Nc2cc3ncccc3c(N[C@@H]3C[C@H]4CC[C@@H](C3)N4C(=O)OC(C)C)n2)n[nH]1 [Example 3-2]				Ki [1]: 0.1 to 1 nM; Ki [2]: 0.1 to 1 nM; IC50 [3, 4]: < 31.6 nM
Cc1cnc2c(F)c(Nc3cc(C)[nH]n3)nc(N[C@@H]3C[C@H]4CC[C@@H](C3)N4CCC#N)c2c1 [Example 8-18]	B (B represents a pKi value between 9 and 10 (Ki between 1 nM and 0.1 nM))	B (B represents a pKi value between 9 and 10 (Ki between 1 nM and 0.1 nM))		THP-1 IL4 pIC50 [3, 5]: B (B represents a pEC50 value between 6.7 and 7.5 (EC50 between 200 nM and 32 nM))
Cc1cc(Nc2cc3ncc(S(C)(=O)=O)cc3c(N[C@@H]3C[C@H]4CC[C@@H](C3)N4C(=O)C(F)F)n2)n[nH]1 [Example 6-52]				Ki [1]: 0.1 to 1 nM; Ki [2, 6]: 0.1 to 1 nM; IC50 [3, 4]: > 200 nM
Cc1cc(Nc2cc3ncccc3c(N[C@@H]3C[C@H]4CC[C@@H](C3)N4S(=O)(=O)C3CNC3)n2)n[nH]1 [Example 4-9]				Ki [1]: 0.1 to 1 nM; Ki [2, 6]: 0.1 to 1 nM; IC50 [3, 4]: > 200 nM
Cc1cc(Nc2cc3ncccc3c(N[C@@H]3C[C@H]4CCC[C@@H](C3)N4C3CCCOC3=O)n2)n[nH]1 (some centres unmarked) [Example 1-53]	B (B represents a pKi value between 9 and 10 (Ki between 1 nM and 0.1 nM))	B (B represents a pKi value between 9 and 10 (Ki between 1 nM and 0.1 nM))	B (B represents a pEC50 value between 6.7 and 7.5 (EC50 between 200 nM and 32 nM))	
COc1cnc2cc(Nc3cc(C)[nH]n3)nc(N[C@@H]3C[C@H]4CC[C@@H](C3)N4CCCC#N)c2c1 [Example 6-12]	B (B represents a pKi value between 9 and 10 (Ki between 1 nM and 0.1 nM))	B (B represents a pKi value between 9 and 10 (Ki between 1 nM and 0.1 nM))		THP-1 IL4 pIC50 [3, 5]: B (B represents a pEC50 value between 6.7 and 7.5 (EC50 between 200 nM and 32 nM))
COC(=O)CN1[C@@H]2CCC[C@H]1C[C@H](Nc1nc(Nc3cc(C)[nH]n3)cc3ncccc13)C2 [Example 1-32]		A (A represents a pKi value≥10 (Ki≤0.1 nM))	C (C represents a pEC50 value<6.7 (EC50>200 nM))	
Cc1cnc2c(F)c(Nc3cc(C)[nH]n3)nc(N[C@@H]3C[C@H]4CC[C@@H](C3)N4S(C)(=O)=O)c2c1 [Example 8-17]	A (A represents a pKi value≥10 (Ki≤0.1 nM))	A (A represents a pKi value≥10 (Ki≤0.1 nM))		THP-1 IL4 pIC50 [3, 5]: B (B represents a pEC50 value between 6.7 and 7.5 (EC50 between 200 nM and 32 nM))
Cc1cc(Nc2cc3ncccc3c(N[C@@H]3C[C@H]4CC[C@@H](C3)N4C(=O)c3ccccc3)n2)n[nH]1 [Example 2-12]				Ki [1, 8]: 0.1 to 1 nM; Ki [2, 6]: 0.1 to 1 nM; IC50 [3, 4]: 31.6 to 200 nM
Cc1cc(Nc2cc3ncccc3c(N[C@@H]3C[C@H]4CC[C@@H](C3)N4C(=O)c3ccncc3)n2)n[nH]1 [Example 2-13]				Ki [1, 8]: 0.1 to 1 nM; Ki [2, 6]: 0.1 to 1 nM; IC50 [3, 4]: 31.6 to 200 nM
C=CCOC(=O)N1[C@@H]2CC[C@H]1C[C@H](Nc1nc(Nc3cc(C)[nH]n3)cc3ncc(C(=O)OC)cc13)C2 [Example 6-40]	B (B represents a pKi value between 9 and 10 (Ki between 1 nM and 0.1 nM))	B (B represents a pKi value between 9 and 10 (Ki between 1 nM and 0.1 nM))		THP-1 IL4 pIC50 [3, 5]: A (A represents a pEC50 value≥7.5 (EC50≤32 nM))
COC(=O)c1cnc2cc(Nc3cc(C)[nH]n3)nc(N[C@@H]3C[C@H]4CC[C@@H](C3)N4CCC#N)c2c1 [Example 6-32]	A (A represents a pKi value≥10 (Ki≤0.1 nM))	A (A represents a pKi value≥10 (Ki≤0.1 nM))		THP-1 IL4 pIC50 [3, 5]: A (A represents a pEC50 value≥7.5 (EC50≤32 nM))
Cc1cc(Nc2cc3nc(CS(C)(=O)=O)ccc3c(N[C@@H]3C[C@H]4CC[C@@H](C3)N4CCCF)n2)n[nH]1 [Example 5-42]	B (B represents a pKi value between 9 and 10 (Ki between 1 nM and 0.1 nM))	B (B represents a pKi value between 9 and 10 (Ki between 1 nM and 0.1 nM))	C (C represents a pEC50 value<6.7 (EC50>200 nM))	
Cc1cc(Nc2cc3ncccc3c(N[C@@H]3C[C@H]4CCC[C@@H](C3)N4CC(=O)OC(C)(C)C)n2)n[nH]1 [Example 1-36]	B (B represents a pKi value between 9 and 10 (Ki between 1 nM and 0.1 nM))	B (B represents a pKi value between 9 and 10 (Ki between 1 nM and 0.1 nM))	B (B represents a pEC50 value between 6.7 and 7.5 (EC50 between 200 nM and 32 nM))	
Cc1cc(Nc2cc3nc(CN4CCOCC4)ccc3c(N[C@@H]3C[C@H]4CCC[C@@H](C3)N4CC(F)(F)F)n2)n[nH]1 [Example 5-29]		A (A represents a pKi value≥10 (Ki≤0.1 nM))	B (B represents a pEC50 value between 6.7 and 7.5 (EC50 between 200 nM and 32 nM))	
CCC(=O)N1[C@@H]2CC[C@H]1C[C@H](Nc1nc(Nc3cc(C)[nH]n3)cc3ncc(C(=O)OC)cc13)C2 [Example 6-36]				Ki [1, 8]: 0.1 to 1 nM; Ki [2, 6]: 0.1 to 1 nM; IC50 [3, 4]: 31.6 to 200 nM

Structure (SMILES)	JAK 1 (pKi) [1]	JAK 2 (pKi) [2]	THP-1 IL4 pIC50 [3, 7]	other results
Cc1cnc2c(F)c(Nc3cc(C)[nH]n3)nc(N[C@@H]3C[C@H]4CC[C@@H](C3)N4S(=O)(=O)N3CC(C#N)C3)c2c1 [Example 8-19]	B (B represents a pKi value between 9 and 10 (Ki between 1 nM and 0.1 nM))	B (B represents a pKi value between 9 and 10 (Ki between 1 nM and 0.1 nM))		THP-1 IL4 pIC50 [3, 5]: C (C represents a pEC50 value<6.7 (EC50>200 nM))
Cc1cc(Nc2cc3ncccc3c(N[C@@H]3C[C@H]4CC[C@@H](C3)N4C3CCOC3=O)n2)n[nH]1 (some centres unmarked) [Example 1-26]				Ki [1, 8]: 0.1 to 1 nM; Ki [2, 6]: 0.1 to 1 nM
Cc1cc(Nc2cc3ncccc3c(N[C@@H]3C[C@H]4CCC[C@@H](C3)N4C(=O)C3(C)CCCC3)n2)n[nH]1 [Example 2-23]		B (B represents a pKi value between 9 and 10 (Ki between 1 nM and 0.1 nM))	B (B represents a pEC50 value between 6.7 and 7.5 (EC50 between 200 nM and 32 nM))	
Cc1cnc2c(F)c(Nc3cc(C)[nH]n3)nc(N[C@@H]3C[C@H]4CCC[C@@H](C3)N4CCC#N)c2c1 [Example 8-21]	B (B represents a pKi value between 9 and 10 (Ki between 1 nM and 0.1 nM))	B (B represents a pKi value between 9 and 10 (Ki between 1 nM and 0.1 nM))		THP-1 IL4 pIC50 [3, 5]: B (B represents a pEC50 value between 6.7 and 7.5 (EC50 between 200 nM and 32 nM))
COCCOC(=O)N1[C@@H]2CCC[C@H]1C[C@H](Nc1nc(Nc3cc(C)[nH]n3)cc3ncccc13)C2 [Example 3-9]	B (B represents a pKi value between 9 and 10 (Ki between 1 nM and 0.1 nM))	B (B represents a pKi value between 9 and 10 (Ki between 1 nM and 0.1 nM))	A (A represents a pEC50 value≥7.5 (EC50≤32 nM))	
CCC(=O)N1[C@@H]2CCC[C@H]1C[C@H](Nc1nc(Nc3cc(C)[nH]n3)cc3ncccc13)C2 [Example 2-15]	B (B represents a pKi value between 9 and 10 (Ki between 1 nM and 0.1 nM))	B (B represents a pKi value between 9 and 10 (Ki between 1 nM and 0.1 nM))	A (A represents a pEC50 value≥7.5 (EC50≤32 nM))	
Cc1cc(Nc2cc3ncccc3c(N[C@@H]3C[C@H]4CC[C@@H](C3)N4S(=O)(=O)N3CCC3)n2)n[nH]1 [Example 4-6]				Ki [1, 8]: 0.1 to 1 nM; Ki [2]: 0.1 to 1 nM; IC50 [3, 4]: < 31.6 nM
COc1ccnc2cc(Nc3cc(C)[nH]n3)nc(N[C@@H]3C[C@H]4CC[C@@H](C3)N4CC(F)F)c12 [Example 7-8]	B (B represents a pKi value between 9 and 10 (Ki between 1 nM and 0.1 nM))	B (B represents a pKi value between 9 and 10 (Ki between 1 nM and 0.1 nM))		THP-1 IL4 pIC50 [3, 5]: B (B represents a pEC50 value between 6.7 and 7.5 (EC50 between 200 nM and 32 nM))
Cc1cc(Nc2cc3ncccc3c(N[C@@H]3C[C@H]4CCC[C@@H](C3)N4Cc3ccncc3)n2)n[nH]1 [Example 1-48]	A (A represents a pKi value≥10 (Ki≤0.1 nM))	A (A represents a pKi value≥10 (Ki≤0.1 nM))	B (B represents a pEC50 value between 6.7 and 7.5 (EC50 between 200 nM and 32 nM))	
Cc1cnc2cc(Nc3cc(C)[nH]n3)nc(N[C@@H]3C[C@H]4CCC[C@@H](C3)N4C(=O)OCC(C)C)c2c1 [Example 6-7]		B (B represents a pKi value between 9 and 10 (Ki between 1 nM and 0.1 nM))		THP-1 IL4 pIC50 [3, 5]: B (B represents a pEC50 value between 6.7 and 7.5 (EC50 between 200 nM and 32 nM))
Cc1cc(Nc2cc3ncccc3c(N[C@@H]3C[C@H]4CC[C@@H](C3)N4C(=O)C3(C)CCCC3)n2)n[nH]1 [Example 2-10]				Ki [1]: 0.1 to 1 nM; Ki [2, 6]: 0.1 to 1 nM; IC50 [3, 4]: 31.6 to 200 nM
COC(=O)C1(C(=O)N2[C@@H]3CCC[C@H]2C[C@H](Nc2nc(Nc4cc(C)[nH]n4)cc4ncccc24)C3)CC1 [Example 2-21]		B (B represents a pKi value between 9 and 10 (Ki between 1 nM and 0.1 nM))	B (B represents a pEC50 value between 6.7 and 7.5 (EC50 between 200 nM and 32 nM))	
Cc1cc(Nc2cc3nc(CN4CCOCC4)ccc3c(N[C@@H]3C[C@H]4CC[C@@H](C3)N4CCC#N)n2)n[nH]1 [Example 5-18]		A (A represents a pKi value≥10 (Ki≤0.1 nM))	B (B represents a pEC50 value between 6.7 and 7.5 (EC50 between 200 nM and 32 nM))	
Cc1cc(Nc2cc3ncccc3c(N[C@@H]3C[C@H]4CCC[C@@H](C3)N4CC3COC(=O)O3)n2)n[nH]1 (some centres unmarked) [Example 1-58]		A (A represents a pKi value≥10 (Ki≤0.1 nM))	B (B represents a pEC50 value between 6.7 and 7.5 (EC50 between 200 nM and 32 nM))	
COC(=O)c1cnc2cc(Nc3cc(C)[nH]n3)nc(N[C@@H]3C[C@H]4CC[C@@H](C3)N4C(=O)C(F)F)c2c1 [Example 6-37]				Ki [1, 8]: 0.1 to 1 nM; Ki [2, 6]: 0.1 to 1 nM
Cc1cc(Nc2cc3ncccc3c(N[C@@H]3C[C@H]4CC[C@@H](C3)N4C3CCOC3=O)n2)n[nH]1 (some centres unmarked) [Example 1-27]	B (B represents a pKi value between 9 and 10 (Ki between 1 nM and 0.1 nM))	B (B represents a pKi value between 9 and 10 (Ki between 1 nM and 0.1 nM))		
